Series [1] is described as follows: Stability of reconstituted dianhydrogalactitol stock solution. The series is classed as physicochemical. The following applies: 8 mg/mL in 0.9% sodium chloride for injection. The procedure: Dianhydrogalactitol (DAG) was provided as a lyophilized product at 40 mg of DAG per vial. For administration, 5 mL of 0.9% sodium chloride for injection, USP (saline) was added to yield a DAG solution with a concentration of 8 mg/mL. This stock solution was stable for 4 hours at room temperature or for 24 hours at 4° C. Further dilutions were made to prepare solutions of injection of 0.9 mg/mL (for administration of 0.18 mg/mouse in 0.2 mL; diluted from the 8 mg/mL reconstituted solution); of 0.45 mg/mL (for administration of 0.09 mg/mouse in 0.2 mL; a 1 to 2 dilution of the 0.9 mg/mL solution); and of 0.225 mg/mL (for administration of 0.045 mg/mouse in 0.2 mL; a 1 to 2 dilution of the 0.45 mg/mL solution).

Series [2] deals with CSC and non-CSC cultures derived from primary GBM tissue. In words: Cell viability (CellTiter-Glo) in primary GBM cultures with or without radiation. The series is classed as cell-based, human. How it is done:
“GAPDH” refers to glyceraldehyde-3-phosphate dehydrogenase as a control. For the cell cultures, CSCs were cultured in NSA media supplemented with B27, EGF and bFGF. Non-CSCs were grown in DMEM:F12 with 10% FBS. MGMT methylation and protein expression analysis of each culture was characterized. TMZ or VAL-083 was added to the cultures in the indicated concentrations. Depending on the experiment, cells were also irradiated with 2 Gy in a Cesium irradiator. For assays, cell cycle analysis was performed with Propidium Iodide staining and FACs analysis. Cell viability was analyzed with CellTiter-Glo™ and read on a Promega GloMax™. […] In FIG. 4, “1° GBM” refers to primary glioblastoma multiforme cell cultures.
In FIG. 17, TMZ (50 μM) or dianhydrogalactitol (“VAL-083”) (5 μM) were added to primary CSC cultures at various doses with or without irradiation (2 Gy). Shown are cell cycle profile analysis at day 4 post treatment (A,C) and cell viability analysis at day 6 post treatment (B,D) for the paired CSC (A,B) and non-CSC (C,D) 7996 culture.
In FIG. 18, dianhydrogalactitol (“VAL-083”) was added to primary CSC cultures at various doses (1, 2.5 and 5 μM) with or without irradiation (2 Gy). Shown are cell cycle profile analysis at day 4 post treatment (A,C) and cell viability analysis at day 6 post treatment (B,D) for two different patient-derived CSC cultures, 7996 (A,B) and 8565 (C,D).
A general note: ATP-based viability assays read luminescence as a measure of living cells.

For series [3] the following is noted: cited from earlier work.

“Also recorded” adds a separate entry of the source.

In the case of dianhydrogalactitol, the “stability of stock solution” value in series [1] (4° C.) was 24 h. The “stability of stock solution” value in series [1] (room temperature) is 4 h. Moreover, the “effect in combination with radiation” value in series [2] (1, 2.5 and 5 μM with or without irradiation (2 Gy), CSC cultures 7996 and 8565) is on record as “acts as a radiosensitizer in primary CSC cultures; also recorded: potential additive effect of dianhydrogalactitol with radiation”. In series [2] (7996 GNS (CSC), low concentration such as 1 μM, radiation), the “reduction in cell viability with dianhydrogalactitol plus radiation” value is listed as 20%. Moreover, the “cell viability in TMZ-resistant cultures” value in series [2] (VAL-083 5 μM, paired CSC and non-CSC 7996 culture, viability day 6 post treatment) was “decreases cell viability in TMZ-resistant cultures”. Also, the Recovery entry in series [3] (GBM chemotherapy, historical data) is “Within 7-8 days”. In series [3] (human, in vivo), the DLT entry was “Hematologic”, the Nadir is 18 to 21 days and the “Other Severe Toxicities Reported (>2%)” value is recorded as “None”.

(Values after patent publication US20190015379A1, “USE OF DIANHYDROGALACTITOL AND ANALOGS AND DERIVATIVES THEREOF, TOGETHER WITH RADIATION, TO TREAT NON-SMALL-CELL CARCINOMA OF THE LUNG AND GLIOBLASTOMA MULTIFORME AND SUPPRESS PROLIFERATION OF CANCER STEM CELLS” (DelMar Pharmaceuticals, Inc., priority 2014, published 2019).)
